Source: US7368424B2, “Acylated nonadepsipeptides” (AiCuris GmbH & Co. KG, priority 2003, dated 2008)
Values after ≈ are worked out from the molar mass of the structure shown. *1 amine or outer side, *2 acyl side, *3 side chain or, on linkers, in order; H or OH if unused. Where a SMILES comes first, the peptide text is derived from it. Bridges are numbered along the chain shown (N, C = ends). [ ]: non-standard residue; d: D form. The star is where a group is joined. Phe(3R-OH) = O=C([C@@H](N[*:1])[C@H](O[*:3])c1ccccc1)[*:2]; Asn(3S-OH) = NC(=O)[C@@H](O)[C@H](N)C(=O)O; Leu(3R-OH) = CC(C)[C@@H](O)[C@H](N)C(=O)O; Ala(SiMe3) = C[Si](C)(C)C[C@H](N)C(=O)O; dPhe(2-F) = N[C@H](Cc1ccccc1F)C(=O)O; Ala(cPr) = N[C@@H](CC1CC1)C(=O)O; tBuAla = CC(C)(C)C[C@H](N)C(=O)O; aThr = C[C@H](O)[C@H](N)C(=O)O; Aic = NC1(C(=O)O)Cc2ccccc2C1; tBu = CC(C)(C)*

Columns and labels:
E. faecalis ICB 27159 = type: cell-based, Enterococcus faecalis; conditions: ICB 27159
Experimental: (§1) Determination of the Minimum Inhibitory Concentration (MIC):
(§2) The MIC is determined in the liquid dilution test in accordance with the NCCLS guidelines. Overnight cultures of Staphylococcus aureus 133, Enterococcus faecalis 27159, E. faecium 4147 and Streptococcus pneumoniae G9a are incubated with the desired test substances in a 1:2 dilution series. The MIC determination is carried out with a cell count of 10^5 microbes per ml in Isosensitest medium (Difco, Irvine/USA), with the exception of S. pneumoniae which is tested in BHI broth (Difco, Irvine/USA) with 10% bovine serum with a cell count of 10^6 microbes per ml. The cultures are incubated at 37° C. for 18-24 hours, S. pneumoniae in the presence of 10% CO2.
(§3) The MIC is defined as the lowest concentration of each substance at which visible bacterial growth no longer occurs. The MIC values are reported in μg/ml.

[1] = system: Streptococcus pneumoniae G9a; type: cell-based; conditions: G9a
Experimental: as §1, §2, §3

[2] = system: Staphylococcus aureus 133; type: cell-based; conditions: 133
Experimental: as §1, §2, §3

E. faecium L4001 = type: cell-based, Enterococcus faecium; conditions: L4001

Compound | MIC E. faecalis ICB 27159 (E. faecalis ICB 27159) [µg/mL] | MIC S. pneumoniae [1] [µg/mL] | MIC S. aureus 133 [2] [µg/mL] | MIC E. faecium L4001 (E. faecium L4001) [µg/mL]
CC[C@H](C)[C@@H]1NC(=O)[C@@H](CCCNC(=N)N)NC(=O)[C@H](CC(C)C)NC(=O)[C@H]([C@H](O)C(C)C)NC(=O)[C@@H](NC(=O)[C@H](CC2CC2)NC(=O)[C@H](N)CC(C)C)[C@@H](c2ccccc2)OC(=O)[C@H](CO)NC(=O)[C@H]([C@H](O)C(N)=O)NC(=O)CNC(=O)[C@H]([C@H](C)O)NC1=O.O=C(O)C(F)(F)F.O=C(O)C(F)(F)F [Example 1, D-leucyl-N^1-{(3S,6S,12S,15S,18R,21S,24S,27S,28R)-6-[(1S)-2-amino-1-hydroxy-2-oxoethyl]-18-(3-{[amino(imino)methyl]amino}propyl)-12-[(1S)-1-hydroxyethyl]-3-(hydroxymethyl)-24-[(1R)-1-hydroxy-2-methylpropyl]-21-isobutyl-15-[(1S)-1-methylpropyl]-2,5,8,11,14,17,20,23,26-nonaoxo-28-phenyl-1-oxa-4,7,10,13,16,19,22,25-octaazacyclooctacosan-27-yl}-3-cyclopropyl-L-alaninamide bistrifluoroacetate] (H-[dL][Ala(cPr)][Phe(3R-OH)][Leu(3R-OH)]L[dR]I[aThr]G[Asn(3S-OH)]S; ester 3-C) | 0.5 | 0.125 | 0.125 | 0.5
CC[C@H](C)[C@@H]1NC(=O)[C@@H](CCCNC(=N)N)NC(=O)[C@H](CC(C)C)NC(=O)[C@H]([C@H](O)C(C)C)NC(=O)[C@@H](NC(=O)[C@H](CC(C)C)NC(=O)[C@H](N)CC(C)C)[C@@H](c2ccccc2)OC(=O)[C@H](CO)NC(=O)[C@H]([C@H](O)C(N)=O)NC(=O)CNC(=O)[C@H]([C@H](C)O)NC1=O.O=C(O)C(F)(F)F.O=C(O)C(F)(F)F [Example 1A, D-Leucyl-N^1-{(3S,6S,12S,15S,18R,21S,24S,27S,28R)-6-[(1S)-2-amino-1-hydroxy-2-oxoethyl]-18-(3-{[amino(imino)methyl]amino}propyl)-12-[(1S)-1-hydroxyethyl]-3-(hydroxymethyl)-24-[(1R)-1-hydroxy-2-methylpropyl]-21-isobutyl-15-[(1S)-1-methylpropyl]-2,5,8,11,14,17,20,23,26-nonaoxo-28-phenyl-1-oxa-4,7,10,13,16,19,22,25-octaazacyclooctacosan-27-yl}-L-leucinamide bistrifluoro-acetate, reference compound] (H-[dL]L[Phe(3R-OH)][Leu(3R-OH)]L[dR]I[aThr]G[Asn(3S-OH)]S; ester 3-C) | 1 | 0.063 | 0.25 | 0.5
CC[C@H](C)[C@@H]1NC(=O)[C@@H](CCCNC(=N)N)NC(=O)[C@H](CC(C)C)NC(=O)[C@H]([C@H](O)C(C)C)NC(=O)[C@@H](NC(=O)[C@H](CC(C)(C)C)NC(=O)[C@H](N)CC(C)C)[C@@H](c2ccccc2)OC(=O)[C@H](CO)NC(=O)[C@H]([C@H](O)C(N)=O)NC(=O)CNC(=O)[C@H]([C@H](C)O)NC1=O [Example 3, D-leucyl-N^1-{(3S,6S,12S,15S,18R,21S,24S,27S,-28R)-6-[(1S)-2-amino-1-hydroxy-2-oxoethyl]-18-(3-{[amino(imino)methyl]amino}propyl)-12-[(1S)-1-hydroxyethyl]-3-(hydroxymethyl)-24-[(1R)-1-hydroxy-2-methylpropyl]-21-isobutyl-15-[(1S)-1-methylpropyl]-2,5,8,11,14,17,20,23,26-nonaoxo-28-phenyl-1-oxa-4,7,10,13,16,19,22,25-octaazacyclooctacosan-27-yl}-3-tert-butyl-L-alaninamide bistrifluoroacetate] (H-[dL][tBuAla][Phe(3R-OH)][Leu(3R-OH)]L[dR]I[aThr]G[Asn(3S-OH)]S; ester 3-C) | 0.25 (≈ 0.194 µM) | 0.031 (≈ 0.024 µM) | 0.125 (≈ 0.0969 µM) | 0.25 (≈ 0.194 µM)
CC[C@H](C)[C@@H]1NC(=O)[C@@H](CCCNC(=N)N)NC(=O)[C@H](CC(C)C)NC(=O)[C@H]([C@H](O)C(C)C)NC(=O)[C@@H](NC(=O)[C@H](CC(C)C)NC(=O)C2(N)Cc3ccccc3C2)[C@@H](c2ccccc2)OC(=O)[C@H](CO)NC(=O)[C@H]([C@H](O)C(N)=O)NC(=O)CNC(=O)[C@H]([C@H](C)O)NC1=O [Example 18, (2-Amino-2,3-dihydro-1H-indenylcarbonyl)-de(1-D-leucyl)lysobactin bistrifluoroacetate] (H-[Aic]L[Phe(3R-OH)][Leu(3R-OH)]L[dR]I[aThr]G[Asn(3S-OH)]S; ester 3-C) | 1 (≈ 0.756 µM) | 2 (≈ 1.51 µM) | 1 (≈ 0.756 µM) | 1 (≈ 0.756 µM)
CC[C@H](C)[C@@H]1NC(=O)[C@@H](CCCNC(=N)N)NC(=O)[C@H](CC(C)C)NC(=O)[C@H]([C@H](O)C(C)C)NC(=O)[C@@H](NC(=O)[C@H](CC(C)C)NC(=O)[C@H](N)Cc2ccccc2F)[C@@H](c2ccccc2)OC(=O)[C@H](CO)NC(=O)[C@H]([C@H](O)C(N)=O)NC(=O)CNC(=O)[C@H]([C@H](C)O)NC1=O [Example 23, (2-Fluoro-D-phenylalanyl)-de(1-D-leucyl)lysobactin bistrifluoroacetate] (H-[dPhe(2-F)]L[Phe(3R-OH)][Leu(3R-OH)]L[dR]I[aThr]G[Asn(3S-OH)]S; ester 3-C) | 1 (≈ 0.753 µM) | 0.125 (≈ 0.0941 µM) | 0.125 (≈ 0.0941 µM) | 0.5 (≈ 0.376 µM)
CC[C@H](C)[C@@H]1NC(=O)[C@@H](CCCNC(=N)N)NC(=O)[C@H](CC(C)C)NC(=O)[C@H]([C@H](O)C(C)C)NC(=O)[C@@H](NC(=O)[C@H](CC(C)C)NC(=O)[C@H](N)CCSC)[C@@H](c2ccccc2)OC(=O)[C@H](CO)NC(=O)[C@H]([C@H](O)C(N)=O)NC(=O)CNC(=O)[C@H]([C@H](C)O)NC1=O [Example 24, D-Methionyl-de(1-D-leucyl)lysobactin bistrifluoroacetate] (H-[dM]L[Phe(3R-OH)][Leu(3R-OH)]L[dR]I[aThr]G[Asn(3S-OH)]S; ester 3-C) | 2 (≈ 1.54 µM) | 0.5 (≈ 0.386 µM) | 0.25 (≈ 0.193 µM) | 1 (≈ 0.772 µM)
CC[C@H](C)[C@@H]1NC(=O)[C@@H](CCCNC(=N)N)NC(=O)[C@H](CC(C)C)NC(=O)[C@H]([C@H](O)C(C)C)NC(=O)[C@@H](NC(=O)[C@H](CC(C)C)NC(=O)[C@@H](N)C[Si](C)(C)C)[C@@H](c2ccccc2)OC(=O)[C@H](CO)NC(=O)[C@H]([C@H](O)C(N)=O)NC(=O)CNC(=O)[C@H]([C@H](C)O)NC1=O [Example 30, [3-(Trimethylsilyl)-L-alanyl]-de(1-D-leucyl)lysobactin bistrifluoroacetate] (H-[Ala(SiMe3)]L[Phe(3R-OH)][Leu(3R-OH)]L[dR]I[aThr]G[Asn(3S-OH)]S; ester 3-C) | 1 (≈ 0.765 µM) | 0.25 (≈ 0.191 µM) | 0.25 (≈ 0.191 µM) | 0.5 (≈ 0.383 µM)
CC[C@H](C)[C@@H]1NC(=O)[C@@H](CCCNC(=N)N)NC(=O)[C@H](CC(C)C)NC(=O)[C@H]([C@H](O)C(C)C)NC(=O)[C@@H](NC(=O)[C@H](CC(C)C)NC(=O)[C@H](N)Cc2ccccc2)[C@@H](c2ccccc2)OC(=O)[C@H](CO)NC(=O)[C@H]([C@H](O)C(N)=O)NC(=O)CNC(=O)[C@H]([C@H](C)O)NC1=O [Example 38, D-Phenylalanyl-de(1-D-leucyl)lysobactin bistrifluoracetate] (H-[dF]L[Phe(3R-OH)][Leu(3R-OH)]L[dR]I[aThr]G[Asn(3S-OH)]S; ester 3-C) | 1 (≈ 0.763 µM) | 0.063 (≈ 0.0481 µM) | 0.125 (≈ 0.0954 µM) | 0.5 (≈ 0.382 µM)
CC[C@H](C)[C@@H]1NC(=O)[C@@H](CCCNC(=N)N)NC(=O)[C@H](CC(C)C)NC(=O)[C@H]([C@H](O)C(C)C)NC(=O)[C@@H](NC(=O)[C@H](CC(C)C)NC(=O)[C@H](N)COC(C)(C)C)[C@@H](c2ccccc2)OC(=O)[C@H](CO)NC(=O)[C@H]([C@H](O)C(N)=O)NC(=O)CNC(=O)[C@H]([C@H](C)O)NC1=O [Example 47, [O-(tert-Butyl)-D-seryl]-de(1-D-leucyl)lysobactin bistrifluoroacetate] (H-[dS](tBu)L[Phe(3R-OH)][Leu(3R-OH)]L[dR]I[aThr]G[Asn(3S-OH)]S; ester 3-C) | 2 (≈ 1.53 µM) | 0.25 (≈ 0.191 µM) | 0.25 (≈ 0.191 µM) | 1 (≈ 0.765 µM)
CC[C@H](C)[C@@H]1NC(=O)[C@@H](CCCNC(=N)N)NC(=O)[C@H](CC(C)C)NC(=O)[C@H]([C@H](O)C(C)C)NC(=O)[C@@H](NC(=O)[C@H](CC(C)C)NC(=O)[C@@H](N)Cc2ccccc2)[C@@H](c2ccccc2)OC(=O)[C@H](CO)NC(=O)[C@H]([C@H](O)C(N)=O)NC(=O)CNC(=O)[C@H]([C@H](C)O)NC1=O [Example 48, L-Phenylalanyl-de(1-D-leucyl)lysobactin bistrifluoroacetate] (H-FL[Phe(3R-OH)][Leu(3R-OH)]L[dR]I[aThr]G[Asn(3S-OH)]S; ester 3-C) | 0.5 (≈ 0.382 µM) | 0.125 (≈ 0.0954 µM) | 0.125 (≈ 0.0954 µM) | 0.25 (≈ 0.191 µM)
